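Briefly, cells in 96-well plates were exposed to five compound concentrations for 48 h, and endpoints were estimated by linear interpolation. At the GI50, growth is halved.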 Calls of active or inactive are those of the source. Rule as the data show it: active = GI50 up to about 1.1 µM and inactive = higher.
Key:
Assay in all cases: NCI anticancer screen, dose series, 48 h
786-0 = system: 786-0
A549 = system: A549
ACHN = system: ACHN
CAKI-1 = system: CAKI-1
CCRF-CEM = system: CCRF-CEM
COLO 205 = system: COLO 205
DLD-1 = system: DLD-1
DMS-114 = system: DMS-114
DMS-273 = system: DMS-273
EKVX = system: EKVX
HCC 2998 = system: HCC 2998
HCT-116 = system: HCT-116
HCT-15 = system: HCT-15
HL-60 = system: HL-60
HOP-18 = system: HOP-18
HOP-62 = system: HOP-62
HOP-92 = system: HOP-92
HT-29 = system: HT-29
IGROV-1 = system: IGROV-1
K562 = system: K562
KM-20L2 = system: KM-20L2
KM12 = system: KM12
LOX IMVI = system: LOX IMVI
LXFL 529 = system: LXFL 529
M14 = system: M14
M19-MEL = system: M19-MEL
MOLT-4 = system: MOLT-4
Malme-3M = system: Malme-3M
NCI-H226 = system: NCI-H226
NCI-H23 = system: NCI-H23
NCI-H460 = system: NCI-H460
NCI-H522 = system: NCI-H522
OVCAR-3 = system: OVCAR-3
OVCAR-4 = system: OVCAR-4
OVCAR-5 = system: OVCAR-5
OVCAR-8 = system: OVCAR-8
RPMI-8226 = system: RPMI-8226
RXF 393 = system: RXF 393
SF-268 = system: SF-268
SF-295 = system: SF-295
SF-539 = system: SF-539
SK-MEL-28 = system: SK-MEL-28
SK-MEL-2 = system: SK-MEL-2
SK-MEL-5 = system: SK-MEL-5
SK-OV-3 = system: SK-OV-3
SN12C = system: SN12C
SNB-19 = system: SNB-19
SNB-75 = system: SNB-75
SNB-78 = system: SNB-78
SR = system: SR
SW-620 = system: SW-620
TK-10 = system: TK-10
U-251 = system: U-251
UACC-257 = system: UACC-257
UACC-62 = system: UACC-62
UO-31 = system: UO-31
XF498 = system: XF498
A498 = system: A498
BT-549 = system: BT-549
DU-145 = system: DU-145
Hs-578T = system: Hs-578T
MCF7 = system: MCF7
MDA-MB-231 = system: MDA-MB-231
MDA-MB-435 = system: MDA-MB-435
MDA-N = system: MDA-N
NCI/ADR-RES = system: NCI/ADR-RES
PC-3 = system: PC-3
T47D = system: T47D

CN(CCO)c1nc2c(c(=O)[nH]1)CNCC2
GI50 (786-0): > 100 µM (inactive)
GI50 (A549): > 100 µM (inactive)
GI50 (ACHN): > 100 µM (inactive)
GI50 (CAKI-1): > 100 µM (inactive)
GI50 (CCRF-CEM): > 100 µM (inactive)
GI50 (COLO 205): > 100 µM (inactive)
GI50 (DLD-1): > 100 µM (inactive)
GI50 (DMS-114): > 100 µM (inactive)
GI50 (DMS-273): > 100 µM (inactive)
GI50 (EKVX): > 100 µM (inactive)
GI50 (HCC 2998): > 100 µM (inactive)
GI50 (HCT-116): > 100 µM (inactive)
GI50 (HCT-15): > 100 µM
GI50 (HL-60): > 100 µM (inactive)
GI50 (HOP-18): > 100 µM (inactive)
GI50 (HOP-62): > 100 µM (inactive)
GI50 (HOP-92): > 100 µM (inactive)
GI50 (HT-29): > 100 µM (inactive)
GI50 (IGROV-1): > 100 µM (inactive)
GI50 (K562): > 100 µM (inactive)
GI50 (KM-20L2): > 100 µM (inactive)
GI50 (KM12): > 100 µM (inactive)
GI50 (LOX IMVI): > 100 µM (inactive)
GI50 (LXFL 529): > 100 µM (inactive)
GI50 (M14): > 100 µM (inactive)
GI50 (M19-MEL): 80.2 µM (inactive)
GI50 (MOLT-4): > 100 µM (inactive)
GI50 (Malme-3M): > 100 µM (inactive)
GI50 (NCI-H226): > 100 µM (inactive)
GI50 (NCI-H23): > 100 µM (inactive)
GI50 (NCI-H460): > 100 µM (inactive)
GI50 (NCI-H522): > 100 µM (inactive)
GI50 (OVCAR-3): > 100 µM (inactive)
GI50 (OVCAR-4): > 100 µM (inactive)
GI50 (OVCAR-5): > 100 µM (inactive)
GI50 (OVCAR-8): > 100 µM (inactive)
GI50 (RPMI-8226): > 100 µM (inactive)
GI50 (RXF 393): > 100 µM (inactive)
GI50 (SF-268): > 100 µM (inactive)
GI50 (SF-295): > 100 µM (inactive)
GI50 (SF-539): > 100 µM (inactive)
GI50 (SK-MEL-28): > 100 µM (inactive)
GI50 (SK-MEL-2): > 100 µM (inactive)
GI50 (SK-MEL-5): > 100 µM (inactive)
GI50 (SK-OV-3): > 100 µM (inactive)
GI50 (SN12C): > 100 µM (inactive)
GI50 (SNB-19): > 100 µM (inactive)
GI50 (SNB-75): 32.8 µM (inactive)
GI50 (SNB-78): > 100 µM (inactive)
GI50 (SR): > 100 µM (inactive)
GI50 (SW-620): > 100 µM (inactive)
GI50 (TK-10): > 100 µM (inactive)
GI50 (U-251): > 100 µM (inactive)
GI50 (UACC-257): > 100 µM (inactive)
GI50 (UACC-62): > 100 µM (inactive)
GI50 (UO-31): > 100 µM (inactive)
GI50 (XF498): > 100 µM (inactive)

O[C@H]1[C@H]2[C@H](O)CCCN2C[C@H]1O [TRIDOLGOSIR]
GI50 (786-0): > 100 µM (inactive)
GI50 (A498): > 100 µM (inactive)
GI50 (A549): > 100 µM (inactive)
GI50 (ACHN): > 100 µM (inactive)
GI50 (CAKI-1): > 100 µM (inactive)
GI50 (CCRF-CEM): 85.3 µM (inactive)
GI50 (COLO 205): > 100 µM (inactive)
GI50 (DLD-1): > 100 µM (inactive)
GI50 (DMS-114): > 100 µM (inactive)
GI50 (DMS-273): > 100 µM (inactive)
GI50 (EKVX): > 100 µM (inactive)
GI50 (HCC 2998): > 100 µM (inactive)
GI50 (HCT-116): > 100 µM (inactive)
GI50 (HCT-15): > 100 µM
GI50 (HL-60): > 100 µM (inactive)
GI50 (HOP-18): > 100 µM (inactive)
GI50 (HOP-62): > 100 µM (inactive)
GI50 (HOP-92): > 100 µM (inactive)
GI50 (HT-29): > 100 µM (inactive)
GI50 (IGROV-1): > 100 µM (inactive)
GI50 (KM-20L2): > 100 µM (inactive)
GI50 (KM12): > 100 µM (inactive)
GI50 (LOX IMVI): > 100 µM (inactive)
GI50 (LXFL 529): > 100 µM (inactive)
GI50 (M14): > 100 µM (inactive)
GI50 (M19-MEL): > 100 µM (inactive)
GI50 (MOLT-4): > 100 µM (inactive)
GI50 (Malme-3M): > 100 µM (inactive)
GI50 (NCI-H226): > 100 µM (inactive)
GI50 (NCI-H23): > 100 µM (inactive)
GI50 (NCI-H460): > 100 µM (inactive)
GI50 (NCI-H522): > 100 µM (inactive)
GI50 (OVCAR-3): > 100 µM (inactive)
GI50 (OVCAR-4): > 100 µM (inactive)
GI50 (OVCAR-5): > 100 µM (inactive)
GI50 (OVCAR-8): > 100 µM (inactive)
GI50 (RPMI-8226): > 100 µM (inactive)
GI50 (RXF 393): > 100 µM (inactive)
GI50 (SF-268): > 100 µM (inactive)
GI50 (SF-295): > 100 µM (inactive)
GI50 (SF-539): > 100 µM (inactive)
GI50 (SK-MEL-28): > 100 µM (inactive)
GI50 (SK-MEL-2): > 100 µM (inactive)
GI50 (SK-MEL-5): > 100 µM (inactive)
GI50 (SK-OV-3): > 100 µM (inactive)
GI50 (SN12C): > 100 µM (inactive)
GI50 (SNB-19): > 100 µM (inactive)
GI50 (SNB-75): > 100 µM (inactive)
GI50 (SNB-78): > 100 µM (inactive)
GI50 (SW-620): > 100 µM (inactive)
GI50 (TK-10): > 100 µM (inactive)
GI50 (U-251): > 100 µM (inactive)
GI50 (UACC-257): > 100 µM (inactive)
GI50 (UACC-62): > 100 µM (inactive)
GI50 (UO-31): > 100 µM (inactive)
GI50 (XF498): > 100 µM (inactive)

COc1cc([C@@H]2c3cc4c(cc3[C@H](O)[C@H]3COC(=O)[C@H]23)OCO4)cc(OC)c1OC [PODOFILOX]
GI50 (A498): < 0.005 µM (active)
GI50 (ACHN): < 0.005 µM (active)
GI50 (BT-549): 0.0232 µM (active)
GI50 (CAKI-1): 0.0897 µM (active)
GI50 (CCRF-CEM): < 0.005 µM (active)
GI50 (COLO 205): < 0.005 µM (active)
GI50 (DLD-1): 0.0243 µM (active)
GI50 (DMS-114): 0.01 µM (active)
GI50 (DMS-273): 0.01 µM (active)
GI50 (DU-145): < 0.005 µM (active)
GI50 (HCT-116): < 0.005 µM (active)
GI50 (HL-60): < 0.005 µM (active)
GI50 (HOP-18): > 100 µM (inactive)
GI50 (HOP-92): 0.227 µM (active)
GI50 (HT-29): < 0.005 µM (active)
GI50 (Hs-578T): < 0.005 µM (active)
GI50 (K562): < 0.005 µM (active)
GI50 (KM12): < 0.005 µM (active)
GI50 (LOX IMVI): < 0.005 µM (active)
GI50 (LXFL 529): 0.01 µM (active)
GI50 (MCF7): < 0.005 µM (active)
GI50 (MDA-MB-231): < 0.005 µM (active)
GI50 (MDA-MB-435): < 0.005 µM (active)
GI50 (MDA-N): < 0.005 µM (active)
GI50 (MOLT-4): < 0.005 µM (active)
GI50 (Malme-3M): 3.01 µM (inactive)
GI50 (NCI-H226): < 0.005 µM (active)
GI50 (NCI-H23): < 0.005 µM (active)
GI50 (NCI/ADR-RES): < 0.005 µM (active)
GI50 (OVCAR-5): 0.0375 µM (active)
GI50 (OVCAR-8): < 0.005 µM (active)
GI50 (PC-3): < 0.005 µM (active)
GI50 (RPMI-8226): < 0.005 µM (active)
GI50 (SF-268): < 0.005 µM (active)
GI50 (SF-295): < 0.005 µM (active)
GI50 (SF-539): < 0.005 µM (active)
GI50 (SK-MEL-28): < 0.005 µM (active)
GI50 (SK-OV-3): < 0.005 µM (active)
GI50 (SNB-19): < 0.005 µM (active)
GI50 (SNB-78): 0.01 µM (active)
GI50 (SR): < 0.005 µM (active)
GI50 (SW-620): < 0.005 µM (active)
GI50 (T47D): 0.5 µM (active)
GI50 (UACC-257): 29.9 µM (inactive)
GI50 (UACC-62): < 0.005 µM (active)
GI50 (XF498): 0.0354 µM (active)
